These results are taken from patent EP0655457A1, “MORANOLINE DERIVATIVE” (NIPPON SHINYAKU COMPANY, LIMITED, priority 1992, dated 1994).

This assay relates to ELAM-1 dependent adhesion of cultured human leukemia HL60 cells. Description: Binding of HL60 cells to IL-1β-activated human vascular endothelial cells (cell adhesion count). Type of assay: cell-based. Particulars: for Cell adhesion count (%): % of control (HL60 bound to IL-1β-activated HUVEC = 100%); for Cell adhesion count: adhered HL60 cells on HUVEC activated with IL-1β 10U/ml. As for the experimental part: The effect of the synthetic sugar on the binding of activated human vascular endothelial cells and cultured human leukemia HL60 cells
Cultured human vascular endothelial cells were separated from the human umbilical vein by collagenase treatment and cultured in a culture flask coated with 1% gelatin or fibronectin at a concentration of 0.02 mg/cm². The growth medium used was prepared by adding 15% fetal calf serum (FCS), 45 mg/l ECGS, 90 mg/l heparin and 40 mg/l gentamicin to medium 199. The proliferation of the cultured human leukemia cell line HL60 was maintained using 10% FCS-containing RPMI-1640. Both cells were cultured in a CO₂ incubator (5% CO₂, 95% air) at 37°C.
The cultured human umbilical vein endothelial cells (HUVEC) were seeded on a 96-well microtiter plate which had been precoated with 0.1% gelatin and were incubated until the growth became confluent. After the cells were washed with 10% FCS-containing Dulbecco's modified Eagle's medium (DMEM), 100 µl of 10% FCS-DMEM containing recombinant human interleukin-1β (IL-1β) was added. The cells were then cultured in a CO₂ incubator at 37°C for 4 hours (activation). The HL60 cells were washed twice with serum-free DMEM, suspended in 0.5% glutaldehyde-containing Hanks' solution and fixed on wet ice for 30 minutes.
The fixed cells were washed twice with serum-free DMEM to remove the fixative. Then, 10% FCS-containing DMEM was added to the cells so as to provide a suspension of 2x10⁶ cells/ml, which was then preserved on wet ice till use.
The HUVEC activated above was washed with 10% FCS-containing DMEM and 50µl of 10% FCS-DMEM containing either anti-ELAM-1 antibody (BBA 2, British Biotechnology Ltd., Abinton) or the test substance was added followed by incubation at room temperature for 30 minutes. The fixed HL60 cells were added in 50 µl aliquots and the incubation was further continued at room temperature for 45 minutes.
After the unbound HL60 cells were washed off, the center of each well was photographed and the number of adhered cells in the photographing field was counted. With the number of HL60 cells bound to the IL-1β-activated HUVEC being taken as 100%, the effect of addition of the test substance was evaluated.

Setting [1] is: concentration of 500 µg/ml, referring to Table 2.
Setting [2] is: concentration of 100 µg/ml, referring to Table 1.

`CC(=O)N1C(=O)C2(OCC3NCC(O)C(O)C3O)CC(O)C1C(C(O)C(O)CO)O2` [Example (8), 6-O-(5-acetamido-3,5-dideoxy-D-glycero-α-D-galacto-2-nonulopyranosylono-1',5-N-lactam)-1,5-dideoxy-1,5-imino-D-glucitol]: under “Table 2, 50 µg/ml, n=6”, the “Cell adhesion count (%)” value is on record as 89.6% and the Cell adhesion count is reported as 473.7. Further, where the note is “Table 2, 500 µg/ml, n=6”, the “Cell adhesion count (%)” value stood at 81.1% and the Cell adhesion count is 428.5. Further, the “inhibit the adhesion of HL60 cells to activated HUVEC” value (shortened to “inhibit the adhesion of HL60 cells”) under setting [1] is 18.9%.
Regarding `CC(=O)N[C@H]1[C@H]([C@H](O)[C@H](O)CO)O[C@@](OC[C@@H]2[C@@H](O)[C@H](O)[C@@H](O)CN2C)(C(=O)O)C[C@@H]1O` [Example (9), O-(5-acetamido-3,5-dideoxy-D-glycero-α-D-galacto-2-nonulopyranosylonic acid)-(2→6)-1,5-dideoxy-N-methyl-1,5-imino-D-glucitol], where the note is “Table 1, 100 µg/ml, n=5”, the “Cell adhesion count (%)” value is 49.1% and the Cell adhesion count was 188.4. Also, the “inhibit the adhesion of HL60 cells” value under setting [2] was 50.9%.
For `CC(=O)N[C@H]1[C@H]([C@H](O)[C@H](O)CO)O[C@@](OC[C@@H]2[C@H](O)[C@H](O)[C@@H](O)CN2C)(C(=O)O)C[C@@H]1O` [Example (11), O-(5-acetamido-3,5-dideoxy-D-glycero-α-D-galacto-2-nonulopyranosylonic acid)-(2→6)-1,5-dideoxy-N-methyl-1,5-imino-D-galactitol], in that order: 40.4%, 155.0 and 59.6%.
On to “6-O-(5-acetamido-3,5-dideoxy-D-glycero-α-D-galacto-2-nonulopyranosylono-1',5-N-lactam)-1,5-dideoxy-1,5-imino-D-galactitol [Example (10)]”, for which, under “Table 2, 50 µg/ml, n=6”, the “Cell adhesion count (%)” value was determined as 93.4% and the Cell adhesion count stood at 494.7. Where the note is “Table 2, 500 µg/ml, n=6”, the “Cell adhesion count (%)” value came out at 82.5% and the Cell adhesion count is 436.2. Besides, the “inhibit the adhesion of HL60 cells” value under setting [1] worked out at 17.5%.
